Measured values from patent US7001616B2, “Microspheres for use in the treatment of cancer” (University of Florida, priority 1998, dated 2006).
Counter-ions that a name gives are not always drawn. Blank lines part the entries; values can stand above or below the compound they belong to.

How the values were obtained:
Assay type in all cases: physicochemical
[1] = In vitro FUDR release from microspheres in buffer; conditions: 50/49/1 microspheres
Method: (§1) Initial FUDR Test. 150 mg of 50–80 μm diameter EMA/DEA/DVB (in a ratio of 50/49/1) microspheres were washed twice with methanol, dried and then immersed in 1 ml of methanol containing 5 mg FUDR. After 24 hours the methanol was allowed to evaporate and the loaded spheres were dispersed in 50 ml of distilled water and centrifuged repeatedly for 10 cycles. The spheres were collected and allowed to dry in a cone filter under the hood for 24 hours. 10 mg of the loaded spheres were placed in each of two separate vials containing either 15 ml of pH 6.8 citric acid buffer (0.05 M I=0.3) or pH 7.4 potassium phosphate monobasic-NaOH buffer (0.05M, Fisher Scientific). Each vial was agitated by hand daily and a total of 5 samples (5 ml each) were taken over a 14 day period and measured spectrophotometrically at 268 nm to determine the FUDR concentration in solution. Each sample was replaced using fresh buffer. The total percent loading was determined by the same process after placing a 10 mg sample of spheres into 15 ml of pH 4.0 citric acid buffer for 24 hours.
Follow-up FUDR Release. […] Sample volumes of 5 ml and 3 ml were taken from the pH 6.6 and 6.9 buffers, respectively.

[2] = Total percent loading of microspheres with FUDR; conditions: 5 mg/ml FUDR in methanol; 50/49/1 microspheres, 50–80 μm
Method: as §1

[3] = In vitro doxorubicin release from microspheres in buffer; conditions: pH 6.75; 50/49/1 microspheres
Method: Doxorubicin Release. The doxorubicin release experiments were carried out in the same manner as the FUDR and dye release. 150 mg of 50–80 μm diameter microspheres were cleaned and immersed in 1 ml of methanol containing 5 mg of the drug for 24 hours and the methanol was allowed to evaporate slowly under the hood. The loaded microspheres were cleaned and dried and 10 mg samples were placed into 20 ml glass vials (Fisher Scientific). 15 ml of citric acid buffer was placed into each vial such that there were three samples each at pH values of 6.6, 6.75, and 6.9. Drug release at pH 7.4 was performed using 15 ml potassium phosphate buffer added to each of the remaining three vials. Drug release was measured spectrophotometrically at 479 nm.

[4] = Total percent loading of microspheres with test dye; conditions: 9-aminoacridine, 100 mg per ml of methanol; spheres from suspension polymerization
Method: (§2) All four compositions produced in Example 1 were tested for release properties using 9-aminoacridine (Aldrich) (free from HCl) as a test dye. A 100–150 mg sample of each composition (from the 50–80 μm size group) was first washed twice with methanol, allowed to dry, and then immersed in a saturated solution of 9-aminoacridine in methanol (10 wt %) for 24 hours. The methanol was allowed to evaporate (usually for 24 hours) and the microspheres were washed by a repeated process of suspension and centrifuging (Adams Dynac centrifuge) in fresh neutral pH water (at least 10 cycles). The loaded spheres were collected in a paper filter cone and dried in an oven at 60° C. under vacuum.
For each composition, 5 mg of dye-loaded spheres were placed in glass vials (Fisher 20 ml scintillation vials) containing 15 ml of citric acid buffer (0.05 M, I=0.3) at pH 6.0, 6.5, and 6.8. The buffer solutions consisted of citric acid (anhydrous, Fisher Scientific), NaOH (Fisher Scientific), deionized water, and NaCl (Aldrich). A total of three samples were used from each composition at each pH value to account for error involved with the weighing of the microspheres. At least five samples (5 ml each) were taken from each vial over a 14 day period and the concentration of dye released was determined spectrophotometrically at 400 nm using a Perkin-Elmer Lambda 3B UV/VIS spectrophotometer. […]

[5] = Release of test dye from microspheres in buffer over 14 days
Method: as §2
[…] […] A total of three samples were used from each composition at each pH value to account for error involved with the weighing of the microspheres. At least five samples (5 ml each) were taken from each vial over a 14 day period and the concentration of dye released was determined spectrophotometrically at 400 nm using a Perkin-Elmer Lambda 3B UV/VIS spectrophotometer. Each sample was replaced with fresh buffer solution. A 5 mg sample of each composition was also placed into 15 ml of pH 2.5 citric acid buffer (0.05 M) for 24 hours to determine the total percent loading (mg dye released/mg loaded spheres) for the microspheres.

FUDR release over 14 day period ([1]; pH 6.8): 80% | FUDR 14 day release ([1]; pH 6.9): 55% | FUDR release ([1]; pH 7.4): over 10% | FUDR loading level [2]: 1.4 weight percentage
SMILES: O=c1[nH]c(=O)n([C@H]2C[C@H](O)[C@@H](CO)O2)cc1F [FUDR, fluorodeoxyuridine]

doxorubicin release over two week period [3]: 75%
SMILES: COc1cccc2c1C(=O)c1c(O)c3c(c(O)c1C2=O)C[C@@](O)(C(=O)CO)C[C@@H]3O[C@H]1C[C@H](N)[C@H](O)[C@H](C)O1 [doxorubicin, hydroxydaunomycin hydrochloride]

dye loading as restated in text [4]: about 15% | test dye release after 14 days ([5]; pH 6.8 citric acid buffer): 76% | test dye release after 14 days ([5]; pH 6.9 citric acid buffer): 63% | test dye release after two weeks ([5]; pH 7.4 potassium phosphate monobasic-NaOH buffer): over 10%
SMILES: Nc1c2ccccc2nc2ccccc12 [test dye, 9-aminoacridine]
